Measurements from patent publication US20260306484A1, “INVERSE AGONISTS OF RAR RELATED ORPHAN RECEPTORS (RORS)” (11949098 CANADA INC. (NUREDCO) c/o Jean I. TCHERVENKOV, priority 2023, published 2026).

How the values were obtained:
[1] = system: Hepa1-6 cells; assay: Hepa1-6 cell viability assay (MTT, GFP); assay type: cell-based, mouse; conditions: varying concentrations
Text: (§1) FIG. 30 illustrates in vitro cell viability assay both human HuH-7 and mouse Hepa1-6 cell lines with increasing concentrations of compound 10. In the human cell line you see an effect with as low as 1mMol concentration. HuH-7 and Hepa1-6 cell viability assays.

[2] = system: breast cancer cell lines; assay: Cell colony forming units, breast cancer; assay type: cell-based, human; conditions: 5 micromolar
[3] = system: HuH-7 cells; assay: HuH-7 colony formation assay; assay type: cell-based, human
Text: (§2) FIG. 32 illustrates another in vitro viability assay Colony Formation Assay. […] HuH-7 and Hepa1-6 colony formation assays.
(§3) FIG. 33 illustrates another in vitro viability assay Colony Formation Assay. […] HuH-7 and Hepa1-6 colony formation assays.

[4] = system: HuH-7 cells; assay: HuH-7 cell viability assay (MTT, GFP); assay type: cell-based, human
Text: as §1

[5] = system: Hepa1-6 cells; assay: Hepa1-6 colony formation assay; assay type: cell-based, mouse
Text: as §2, §3

[6] = system: CD4+ cells from in-vitro polarized peripheral blood mononuclear cells; assay: Th17-polarized PBMCs treated 48 h, then PMA/ionomycin and intracellular staining by flow cytometry; assay type: cell-based, human; conditions: 750 nM, PBMCs from 9 individuals, vs vehicle, paired t-test P<0.05
Procedure: FIG. 4 illustrates a bar graph represents the % of IL17A+ cells also known as Th17 cells out of CD4+ cells known as Helper T cells. The peripheral blood mononuclear cells from 9 individuals were polarized (in-vitro) using CD3/CD28 dynabeads in presence of TGFβ, IL1B, IL6 and IL23 for 14 days. The cells from each individual was divided into two equal portions and one portion was treated with the Cpd10 at dose of 750 nM and the second portion was treated with the vehicle for 48 hours followed by PMA/ionomycin in presence of transport blocker for 6 hours. Cpd10 decreased the % of IL17A+CD4+ in treated compared to vehicle treated controls and measured by flow cytometry. Paired t-test, significant, P<0.05.
(§4) FIG. 5 illustrates a bar graph represents the % of IL21+ cells which includes all types of CD4+ cells secreting IL21 (e.g. Th17, Tfh). The peripheral blood mononuclear cells from 9 individuals were polarized (in-vitro) using CD3/CD28 dynabeads in presence of TGFβ, IL1β, IL6 and IL23 for 14 days. The cells from each individual was divided into two equal portions and one portion was treated with the Cpd10 at dose of 750 nM and the second portion was treated with the vehicle for 48 hours followed by PMA/ionomycin in presence of transport blocker for 6 hours. Cpd10 decreased the % of IL21+CD4+ in treated compared to vehicle treated controls measured by flow cytometry. Paired t-test Significant P<0.05.
as §4, with “FIG. 6” for “FIG. 5”, “of IL22+” for “of IL21+”, “secreting IL22” for “secreting IL21”, “Th17, Th22).” for “Th17, Tfh).”, “of IL22+CD4+” for “of IL21+CD4+”, “Paired t-test, significant,” for “Paired t-test Significant”
FIG. 7 illustrates a bar graph represents the % RORγt+ cells which includes all types of CD4+ cells expressing RORγt (e.g. Th17). The peripheral blood mononuclear cells from 9 individuals were polarized (in-vitro) using CD3/CD28 dynabeads in presence of TGFβ, IL1β, IL6 and IL23 for 14 days. The cells from each individual was divided into two equal portions and one portion was treated with the Cpd10 at dose of 750 nM and the second portion was treated with the vehicle for 48 hours followed by PMA/ionomycin in presence of transport blocker for 6 hours. Cpd10 increased the % of RORγt+ CD4+ in treated compared to vehicle treated controls measured by flow cytometry. […]

[7] = system: pancreatic cancer (PDL1 expression); assay: PDL1 immune checkpoint expression in pancreatic cancer; assay type: cell-based, human; conditions: pancreatic cancer (FIG. 19)
[8] = system: Balb/c skin grafts; assay: Balb/c skin graft survival in sensitized C57BL/6 recipients (Example 9); assay type: in vivo, mouse (C57BL/6); conditions: for median graft survival: daily ip, cpd 13 1 mg/kg, tacrolimus 0.5 mg/kg, or both, ctrl = 6 days, P-value<<0.001, mantel-cox test
Procedure: C57BL/6 mice were sensitized by 3 IP injections of 10 M Balb/c splenocytes at day 0, 7 and 14. The mice were transplanted at day 15 with 1 cm^2 skin grafts from Balb/c mice and treated daily with ip injections of vehicle (ctrl), cpd 13 1 mg/kg (131 mg/kg), tacrolimus 0.5 mg/kg (tacro0.5 mg/kg) and cpd13 1 mg/kg+tacrolimus 0.5 mg/kg (131 mg/kg+tacro0.5 mg/kg). P-value<<0.001, mantel-cox test; median graft survival: ctrl=6 days, tacro0.5 mg/kg=7 days, 131 mg/kg=13.5 days and cpd13 131 mg/kg+tacro0.5 mg/kg=23 days.

Row | SMILES | Hepa1-6 cell viability, GFP assay [1] | Hepa1-6 cell viability, MTT assay [1] | ability to form colony forming units [2] | minimal effective concentration ([3]; Homo sapiens, Huh-7, both cell lines suppressed, read-out: concentration at which HuH-7 colony formation is suppressed) | HuH-7 colony growth ability ([3]; varying concentrations) | minimal effective concentration ([4]; human cell line HuH-7, read-out: lowest concentration with an effect on cell viability) | HuH-7 cell viability, GFP assay ([4]; varying concentrations) | HuH-7 cell viability, MTT assay ([4]; varying concentrations) | minimal effective concentration ([5]; Mus musculus, Hepa1-6, both cell lines suppressed, read-out: concentration at which Hepa1-6 colony formation is suppressed) | Hepa1-6 colony growth ability ([5]; varying concentrations) | % of IL17A+ cells (Th17) out of CD4+ cells [6] | % of IL21+CD4+ cells [6] | % of IL22+CD4+ cells [6] | % of RORγt+ CD4+ cells [6] | expression of PDL1 [7] | median graft survival [8] | skin graft survival increase ([8]; increase survival from 1 up to 3 weeks (FIG. 50))
1 | CN1CCN(CC(=O)Nc2sc3c(c2C(=O)NCc2ccccc2)CCCC3)CC1 [Compound 10, N-benzyl-2-(2-(4-methylpiperazin-1-yl)acetamido)-4,5,6,7-tetrahydrobenzo[b]thiophene-3-carboxamide] | significant and dose dependent difference | significant and dose dependent difference | significantly reduces | 2500 µM | significant and dose dependent difference | 1000 µM | significant and dose dependent difference | significant and dose dependent difference | 2500 µM | significant and dose dependent difference | decreased | decreased | decreased | increased | increases that expression |  | 
2 | C[C@@H]1CCN(C(=O)c2c(NC(=O)c3cccnc3)sc3c2CCCC3)[C@H](C)C1 [Compound 13, N-(3-((2R,4R)-2,4-dimethylpiperidine-1-carbonyl)-4,5,6,7-tetrahydrobenzo[b]thiophen-2-yl) nicotinamide] |  |  |  |  |  |  |  |  |  |  |  |  |  |  |  | 13.5 days | up to 3 weeks
3 | C=CC[C@@H]1/C=C(\C)C[C@H](C)C[C@H](OC)[C@H]2O[C@@](O)(C(=O)C(=O)N3CCCC[C@H]3C(=O)O[C@H](/C(C)=C/[C@@H]3CC[C@@H](O)[C@H](OC)C3)[C@H](C)[C@@H](O)CC1=O)[C@H](C)C[C@@H]2OC [tacrolimus, reference compound] |  |  |  |  |  |  |  |  |  |  |  |  |  |  |  | 7 days | 
